Reference: patent publication US6107316A, “Method for treating protozoal infections” (priority 1998, dated 2000)
Values after ≈ are worked out from the molar mass of the structure shown. Like-named read-outs stand apart in the source and are kept apart here.

Key:
Giardia lamblia = experiment: in vitro growth inhibitory activity against Giardia lamblia; type: cell-based; conditions: Giardia duodenalis; concentration required to inhibit growth by 50%
Description: 35, pp. 2198-2202 (1991). EC50 values for test compounds, expressed in parts per million (ppm), were calculated from dose response curves and are presented in Table 4. As used herein, the terminology "EC50" means the concentration of test compound required to inhibit growth by 50% are compared to a control lacking the test compound. Metronidazole was included as a standard in the tests for comparative purposes.

Entamoeba histolytica = experiment: in vitro growth inhibitory activity against E. histolytica; type: cell-based
Excerpt: 35, pp. 2198-2202 (1991). Metronidazole was included as a standard in the test for comparative purposes.

Tetrahymena pyriformis = experiment: in vitro growth inhibitory activity against the ciliate Tetrahymena pyriformis; type: cell-based, Tetrahymena pyriformis (ATCC strain 30005); conditions: read-out: EC50 Tetrahymena pyriformis
Description: Compounds were evaluated for in vitro growth inhibitory activity against the ciliate Tetrahymena pyriformis, which was used as an indicator organism for the Apicomplexia since by several criteria the ciliates and Apicomplexa are closely related (Edlind T. D. et al., Mol. Phylogenet. Evol. vol. 5, pp. 359-367, 1996). T. pyriformis (ATCC strain 30005) was grown in 1 ml ATCC medium 357 at 25° C. in 4 ml polyallomer culture tubes without shaking. Compounds were dissolved in dimethylsufoxide (DMSO) and added to the cultures (containing 3,000 cells/ml) such that the final DMSO concentration was 0.1-0.3%. […] Parasitol. vol. 84, pp. 355-370, 1996) and Cryptosporidium parvum (Arrowood et al., FEMS Microbial. Lett., vol. 136, pp. 245-249, 1996) were tested for comparison.

Leishmania major = experiment: in vitro growth inhibitory activity against L. major promastigotes; type: cell-based
Excerpt: 35, pp. 2198-2202 (1991).

[1] = system: Encephalitozoon (Septata) intestinalis; experiment: growth inhibitory activity against E. intestinalis grown on Vero cells (spore count); type: cell-based; conditions: 336 h, 0.1 μg/ml, spore number after 2 weeks, read-out: Growth (% of control)
Description: Compounds 2, 10 and 15 were tested for i,7 vitro growth inhibitory activity against E. intestinalis, grown on African green monkey kidney cells (Vero cells). Vero cells were grown in 25-cm^2 culture flasks at 37° C. in a humidified 5% carbon dioxide incubator. Cultures were maintained in minimal essential medium (Gibco BRL, Gaithersburg, Md., U.S.A.), supplemented with L-glutamine, Earle's salts, 5% heat-inactivated foetal calf serum (Hyclone Labs, Inc., U.S.A.), fungizone (2 μg/ml, Gibco BRL) and gentamicin (50 μg/ml, Gibco BRL). E. intestinalis spores were collected from the supernatant of an infected Vero cell culture and were used to infect normal cells to produce a fresh spore preparation for growth inhibition tests.
Growth inhibition tests were performed in 24-well culture plates. One ml of Vero cells (5×10^4 cells per ml) was placed in each well and the cells incubated for 12-15 hours at 37° C. The supernatant medium was then removed and replaced with 1 ml of medium containing 1.5-2.0×10^4 E. intestinalis spores per ml along with 1 μl of test compound dissolved in dimethylsulfoxide (DMSO) or DMSO alone for the control treatments without test compound. The plates were incubated at 37° C. and the medium was changed every 72 h along with fresh test compound in DMSO or DMSO alone (controls). After 2 weeks the supernatant was transferred from each well to a microcentiifuge tube, then concentrated by centrifugation with resuspension of the resulting E. intestinalis spore pellet in 300-500 μl fresh medium. The spore number in each sample was then determined by counting in a hemocytometer. The results in Table 11 show the effects of the test compounds on the number of spores and are expressed as a percentage of the spore number in the control treatment without test compound.

Toxoplasma gondii = conditions: Stokkermans et al., 1996; cited from earlier work
Cryptosporidium parvum = conditions: Arrowood et al., 1996; cited from earlier work

Row | Compound | EC50 (Giardia lamblia) [µg/mL] | EC50 (Entamoeba histolytica) [µg/mL] | EC50 (Tetrahymena pyriformis; 24 hours, 25° C.) [µg/mL] | EC50 (Leishmania major) [µg/mL] | activity at 0.1 µg/mL [1] [%] | in vitro activity against Toxoplasma gondii (Toxoplasma gondii) | EC50 (Tetrahymena pyriformis; 24 h) [µg/mL] | in vitro activity against Cryptosporidium parvum (Cryptosporidium parvum)
1 | CCC(C)(NC(=O)c1cc(Cl)cc(C=NOC)c1)C(=O)CCl (stereo not shown) [Compound 2] | 0.03 (≈ 0.0869 µM) | 12 (≈ 34.8 µM) | < 0.01 | 0.03 (≈ 0.0869 µM) | 29 |  |  | 
2 | CCC(C)(NC(=O)c1cc(C)cc(Br)c1)C(=O)CCl (stereo not shown) [Compound 3] | 0.06 (≈ 0.173 µM) | 16 (≈ 46.2 µM) | < 0.01 | 0.2 (≈ 0.577 µM) |  |  |  | 
3 | CCC(C)(NC(=O)c1cncc(Br)c1)C(=O)CCl (stereo not shown) [Compound 15] | 0.2 (≈ 0.599 µM) | 20 (≈ 59.9 µM) | < 0.01 | 0.7 (≈ 2.1 µM) | 13 |  |  | 
4 | Cc1ncc([N+](=O)[O-])n1CCO [Metronidazole, reference compound] | 0.7 (≈ 4.09 µM) | 0.5 (≈ 2.92 µM) |  |  |  |  |  | 
5 | CCC(CC)Nc1c([N+](=O)[O-])cc(C)c(C)c1[N+](=O)[O-] [pendimethalin] |  |  |  |  |  | have in vitro activity | 2 (≈ 7.11 µM) | have in vitro activity
6 | CCCN(CCC)c1c([N+](=O)[O-])cc(C(F)(F)F)cc1[N+](=O)[O-] [trifluralin] |  |  | > 6 |  |  | have in vitro activity |  | have in vitro activity
